Values of other authors in patent publication US20140371322A1, “Phenoxybenzamine Transdermal Composition” (PROFESSIONAL COMPOUNDING CENTERS OF AMERICA, priority 2013, published 2014).

Assays:
[1] = weak base

SMILES: CC(COc1ccccc1)N(CCCl)Cc1ccccc1 (centres unmarked) [phenoxybenzamine]
- pka (dissociation constant) [1]: 6.58
- octanol/water log P partition coefficient: 4.6
